Activity calls are given as the source filed them. No cut-off for these calls is given here.
Key:
Escherichia coli [1] = assay: Antimicrobial activity against Escherichia coli ATCC 9637 by agar-dilution streak method; assay type: functional
Staphylococcus aureus = assay: Antimicrobial activity against Staphylococcus aureus ATCC 13709 by agar-dilution streak method; assay type: functional
Candida albicans [2] = assay: Antimicrobial activity against Candida albicans ATCC 10231 at 100 ug/ml by agar-dilution streak method; assay type: functional, organism-based
[3] = tested on: Salmonella enterica subsp. enterica serovar Gallinarum; assay: Antimicrobial activity against Salmonella gallinarum ATCC 9184 by agar-dilution streak method; assay type: functional
Pseudomonas aeruginosa = assay: Antimicrobial activity against Pseudomonas aeruginosa ATCC 27853 at 100 ug/ml by agar-dilution streak method; assay type: functional, organism-based
[4] = tested on: Mycolicibacterium smegmatis; assay: Antimicrobial activity against Mycobacterium smegmatis ATCC 607 by agar-dilution streak method; assay type: functional
Klebsiella pneumoniae [5] = assay: Antimicrobial activity against Klebsiella pneumoniae ATCC 10031 by agar-dilution streak method; assay type: functional
Escherichia coli [6] = assay: Antimicrobial activity against Escherichia coli ATCC 9637 at 100 ug/ml by agar-dilution streak method; assay type: functional, organism-based
Klebsiella pneumoniae [7] = assay: Antimicrobial activity against Klebsiella pneumoniae ATCC 10031 at 100 ug/ml by agar-dilution streak method; assay type: functional, organism-based
Candida albicans [8] = assay: Antimicrobial activity against Candida albicans ATCC 10231 by agar-dilution streak method; assay type: functional
[9] = tested on: Salmonella enterica subsp. enterica serovar Gallinarum; assay: Antimicrobial activity against Salmonella gallinarum ATCC 9184 at 100 ug/ml by agar-dilution streak method; assay type: functional, organism-based

## CN[C@@H]1[C@H](O[C@H]2[C@H](O[C@H]3[C@H](O)[C@@H](O)[C@H](N=C(N)N)[C@@H](O)[C@@H]3N=C(N)N)O[C@@H](C)[C@]2(O)C=O)O[C@@H](CO)[C@H](O)[C@H]1O.CN[C@@H]1[C@H](O[C@H]2[C@H](O[C@H]3[C@H](O)[C@@H](O)[C@H](N=C(N)N)[C@@H](O)[C@@H]3N=C(N)N)O[C@@H](C)[C@]2(O)C=O)O[C@@H](CO)[C@H](O)[C@H]1O.O=S(=O)(O)O.O=S(=O)(O)O.O=S(=O)(O)O [STREPTOMYCIN SULFATE]
Escherichia coli [1]
  Activity: 5 µg/mL
Staphylococcus aureus
  Activity: 5 µg/mL
Candida albicans [2]
  Activity: inactive
[3]
  Activity: 50 µg/mL
Pseudomonas aeruginosa
  Activity: inactive
[4]
  Activity: 1.25 µg/mL
Klebsiella pneumoniae [5]
  Activity: 2.5 µg/mL

## CC(=O)C1=C(O)C=C2Oc3c(C(C)=O)c(O)c(C)c(O)c3[C@]2(C)C1=O [(-)-USNIC ACID]
Escherichia coli [6]
  Activity: inactive
Staphylococcus aureus
  Activity: 25 µg/mL
Pseudomonas aeruginosa
  Activity: inactive
Klebsiella pneumoniae [7]
  Activity: inactive
[4]
  Activity: 6.25 µg/mL
Candida albicans [8]
  Activity: 50 µg/mL
[9]
  Activity: inactive

## CCCCCC(=O)Cc1cc(O)cc2c1C(=O)Oc1cc(O)c(C(=O)O)c(CCCCC)c1O2 [PHYSODIC ACID]
Escherichia coli [6]
  Activity: inactive
Staphylococcus aureus
  Activity: 25 µg/mL
Candida albicans [2]
  Activity: inactive
Pseudomonas aeruginosa
  Activity: inactive
Klebsiella pneumoniae [7]
  Activity: inactive
[4]
  Activity: 100 µg/mL
[9]
  Activity: inactive

## CCCCCc1cc2cc(O)cc(Oc3c(O)cc(O)c4c3CC(CCCCC)(OCC)OC4=O)c2c(=O)o1 (stereo not given)
Escherichia coli [6]
  Activity: inactive
Staphylococcus aureus
  Activity: 50 µg/mL
Pseudomonas aeruginosa
  Activity: inactive
Klebsiella pneumoniae [7]
  Activity: inactive
[4]
  Activity: 50 µg/mL
Candida albicans [8]
  Activity: 100 µg/mL
[9]
  Activity: inactive

## Cc1cc(O)cc2oc3cc(O)c4c(c3c12)C(O)OC4=O (stereo not given) [ALECTOSARMENTIN]
Escherichia coli [6]
  Activity: inactive
Staphylococcus aureus
  Activity: 25 µg/mL
Candida albicans [2]
  Activity: inactive
Pseudomonas aeruginosa
  Activity: inactive
Klebsiella pneumoniae [7]
  Activity: inactive
[4]
  Activity: 25 µg/mL
[9]
  Activity: inactive
